Reference: patent publication US11939300B2, “Compounds and methods for treating autoimmune disorders by targeting HLA-DQ2” (ImmunoMolecular Therapeutics, Inc., priority 2020, dated 2024)

System: HLA-DQ2
Assay: Inhibition of IL-2 secretion by TCR transductants stimulated by α-gliadin peptides presented by HLA-DQ2 expressing K562 cells (ELISA)
Type: cell-based, human
Settings: for DQ2 IL2 Maximal % Inhibition: IL-2 secretion, TCR transductants (α I- or α II-gliadin) + gliadin peptide + HLA-DQ2 K562 cells, at the concentration given in brackets; for concentration at which the compound exhibited maximum % inhibition (DQ2 IL2): from dose-response curve, figure in brackets in the cell
Experimental: Three commercially available analogues of the DQ2 binding molecules of the invention were tested for their ability to inhibit stimulation of T cell receptor (TCR) transductants in the presence of HLA-DQ2 expressing cells presenting known α-gliadin epitopes.
Using a previously published in vitro assay (Ostrov D, et al. Methyldopa blocks MHC class II binding to disease specific antigens in autoimmune diabetes. J Clin Invest. 2018:128(5)) we measured the ability of these DQ2 binding analogues to inhibit interleukin-2 (IL-2) secretion by TCR transductants stimulated by α-gliadin peptides presented by HLA-DQ2. Individual TCR transductants (recognizing α I-gliadin or α II-gliadin) were cultured with a gliadin peptide plus the small molecule analogues in the presence of HLA-DQ2 expressing K562 cells serving as antigen presenting cells. TCR transductants cultured with no gliadin peptide served as the negative control, and incubation with an anti-CD3 antibody (eBioscience; clone 2C11) served as a positive control for the TCR transductant. Secreted IL-2 in the culture supernatant was measured using a highly sensitive enzyme-linked immunosorbent assay (ELISA). […] Assays for effects on cell viability and for specificity, assayed in the absence of gliadin peptide or in the presence of a stimulating anti-CD3 antibody, were performed. A=71-100%; B=41-70%; C=11-40%; D=0-10%, NT=Not tested.

## O=C(NC1CCc2n[nH]c(=O)cc2C1)c1ccccc1 (centres unmarked) [Compound 1]
  DQ2 IL2 Maximal % Inhibition: C (C=11-40%)
  concentration at which the compound exhibited maximum % inhibition (DQ2 IL2): 50 µM

## Cc1ccc(C(=O)NC2CCc3n[nH]c(=O)cc3C2)cc1 (centres unmarked) [Compound 2]
  DQ2 IL2 Maximal % Inhibition: C (C=11-40%)
  concentration at which the compound exhibited maximum % inhibition (DQ2 IL2): 100 µM

## CCCc1ccc(C(=O)NC2CCc3n[nH]c(=O)cc3C2)cc1 (centres unmarked) [Compound 3]
  DQ2 IL2 Maximal % Inhibition: B (B=41-70%)
  concentration at which the compound exhibited maximum % inhibition (DQ2 IL2): 100 µM

## CC(C)c1ccc(C(=O)NC2CCc3n[nH]c(=O)cc3C2)cc1 (centres unmarked) [Compound 4]
  DQ2 IL2 Maximal % Inhibition: A (A=71-100%)
  concentration at which the compound exhibited maximum % inhibition (DQ2 IL2): 200 µM

## CCCCc1ccc(C(=O)NC2CCc3n[nH]c(=O)cc3C2)cc1 (centres unmarked) [Compound 5, 4-n-butyl-N-(3-oxo-5,6,7,8-tetrahydrocinnolin-6-yl)benzamide]
  DQ2 IL2 Maximal % Inhibition: D (D=0-10%)
  concentration at which the compound exhibited maximum % inhibition (DQ2 IL2): 50 µM

## CC(=O)NC1CCc2n[nH]c(=O)cc2C1 (centres unmarked) [Compound 6]
  DQ2 IL2 Maximal % Inhibition: C (C=11-40%)
  concentration at which the compound exhibited maximum % inhibition (DQ2 IL2): 50 µM

## CCC(=O)NC1CCc2n[nH]c(=O)cc2C1 (centres unmarked) [Compound 7]
  DQ2 IL2 Maximal % Inhibition: D (D=0-10%)
  concentration at which the compound exhibited maximum % inhibition (DQ2 IL2): 200 µM

## CCCC(=O)NC1CCc2n[nH]c(=O)cc2C1 (centres unmarked) [Compound 8]
  DQ2 IL2 Maximal % Inhibition: D (D=0-10%)
  concentration at which the compound exhibited maximum % inhibition (DQ2 IL2): 200 µM

## CCCCC(=O)NC1CCc2n[nH]c(=O)cc2C1 (centres unmarked) [Compound 9]
  DQ2 IL2 Maximal % Inhibition: C (C=11-40%)
  concentration at which the compound exhibited maximum % inhibition (DQ2 IL2): 100 µM

## CC(C)(C)C(=O)NC1CCc2n[nH]c(=O)cc2C1 (centres unmarked) [Compound 10]
  DQ2 IL2 Maximal % Inhibition: D (D=0-10%)
  concentration at which the compound exhibited maximum % inhibition (DQ2 IL2): 200 µM

## O=C(NC1CCc2n[nH]c(=O)cc2C1)C1CC1 (centres unmarked) [Compound 11]
  DQ2 IL2 Maximal % Inhibition: D (D=0-10%)
  concentration at which the compound exhibited maximum % inhibition (DQ2 IL2): 200 µM

## O=C(NC1CCc2n[nH]c(=O)cc2C1)C1CCCCC1 (centres unmarked) [Compound 12]
  DQ2 IL2 Maximal % Inhibition: C (C=11-40%)
  concentration at which the compound exhibited maximum % inhibition (DQ2 IL2): 0.1 µM

## CC(C)(C)c1ccc(C(=O)NC2CCc3n[nH]c(=O)cc3C2)cc1 (centres unmarked) [Compound 13]
  DQ2 IL2 Maximal % Inhibition: D (D=0-10%)
  concentration at which the compound exhibited maximum % inhibition (DQ2 IL2): 0.1 µM

## O=C(NC1CCc2n[nH]c(=O)cc2C1)c1ccc(C2CCCCC2)cc1 (centres unmarked) [Compound 14]
  DQ2 IL2 Maximal % Inhibition: B (B=41-70%)
  concentration at which the compound exhibited maximum % inhibition (DQ2 IL2): 200 µM

## CC(C)C(=O)NC1CCc2n[nH]c(=O)cc2C1 (centres unmarked) [Compound 15]
  DQ2 IL2 Maximal % Inhibition: C (C=11-40%)
  concentration at which the compound exhibited maximum % inhibition (DQ2 IL2): 100 µM

## Cn1nc2c(cc1=O)CC(NC(=O)c1ccccc1)CC2 (centres unmarked) [Compound 16, N-(2-methyl-3-oxo-5,6,7,8-tetrahydrocinnolin-6-yl)benzamide]
  DQ2 IL2 Maximal % Inhibition: B (B=41-70%)
  concentration at which the compound exhibited maximum % inhibition (DQ2 IL2): 100 µM

## Cn1nc2c(cc1=O)CC(NC(=O)c1ccc3ccccc3c1)CC2 (centres unmarked) [Compound 17]
  DQ2 IL2 Maximal % Inhibition: A (A=71-100%)
  concentration at which the compound exhibited maximum % inhibition (DQ2 IL2): 100 µM

## CC(=O)NC1CCc2nn(C)c(=O)cc2C1 (centres unmarked) [Compound 18]
  DQ2 IL2 Maximal % Inhibition: C (C=11-40%)
  concentration at which the compound exhibited maximum % inhibition (DQ2 IL2): 100 µM

## Cn1nc2c(cc1=O)CC(NC(=O)C1CCCCC1)CC2 (centres unmarked) [Compound 19]
  DQ2 IL2 Maximal % Inhibition: B (B=41-70%)
  concentration at which the compound exhibited maximum % inhibition (DQ2 IL2): 100 µM

## Cc1ccc(C(=O)NC2CCc3nn(C)c(=O)cc3C2)cc1 (centres unmarked) [Compound 20]
  DQ2 IL2 Maximal % Inhibition: B (B=41-70%)
  concentration at which the compound exhibited maximum % inhibition (DQ2 IL2): 200 µM

## Cn1nc2c(cc1=O)CC(NC(=O)c1ccc(C(F)(F)F)cc1)CC2 (centres unmarked) [Compound 21]
  DQ2 IL2 Maximal % Inhibition: A (A=71-100%)
  concentration at which the compound exhibited maximum % inhibition (DQ2 IL2): 100 µM

## Cn1nc2c(cc1=O)CC(NC(=O)c1cccc3ccccc13)CC2 (centres unmarked) [Compound 22]
  DQ2 IL2 Maximal % Inhibition: C (C=11-40%)
  concentration at which the compound exhibited maximum % inhibition (DQ2 IL2): 200 µM

## CCCC(=O)NC1CCc2nn(C)c(=O)cc2C1 (centres unmarked) [Compound 23]
  DQ2 IL2 Maximal % Inhibition: C (C=11-40%)
  concentration at which the compound exhibited maximum % inhibition (DQ2 IL2): 100 µM

## Cn1nc2c(cc1=O)CC(NC(=O)C(C)(C)C)CC2 (centres unmarked) [Compound 24]
  DQ2 IL2 Maximal % Inhibition: C (C=11-40%)
  concentration at which the compound exhibited maximum % inhibition (DQ2 IL2): 100 µM

## Cn1nc2c(cc1=O)CC(NC(=O)C1CC1)CC2 (centres unmarked) [Compound 25]
  DQ2 IL2 Maximal % Inhibition: C (C=11-40%)
  concentration at which the compound exhibited maximum % inhibition (DQ2 IL2): 200 µM

## O=C(NC1CCc2n[nH]c(=O)cc2C1)c1ccc(F)cc1 (centres unmarked) [Compound 28]
  DQ2 IL2 Maximal % Inhibition: C (C=11-40%)
  concentration at which the compound exhibited maximum % inhibition (DQ2 IL2): 200 µM

## O=C(NC1CCc2n[nH]c(=O)cc2C1)c1ccc(Cl)cc1 (centres unmarked) [Compound 29]
  DQ2 IL2 Maximal % Inhibition: B (B=41-70%)
  concentration at which the compound exhibited maximum % inhibition (DQ2 IL2): 200 µM

## O=C(NC1CCc2n[nH]c(=O)cc2C1)c1ccc(Br)cc1 (centres unmarked) [Compound 30]
  DQ2 IL2 Maximal % Inhibition: C (C=11-40%)
  concentration at which the compound exhibited maximum % inhibition (DQ2 IL2): 200 µM

## O=C(NC1CCc2n[nH]c(=O)cc2C1)c1ccc(I)cc1 (centres unmarked) [Compound 31]
  DQ2 IL2 Maximal % Inhibition: C (C=11-40%)
  concentration at which the compound exhibited maximum % inhibition (DQ2 IL2): 200 µM

## Cn1nc2c(cc1=O)CC(NC(=O)c1ccc(F)cc1)CC2 (centres unmarked) [Compound 32]
  DQ2 IL2 Maximal % Inhibition: C (C=11-40%)
  concentration at which the compound exhibited maximum % inhibition (DQ2 IL2): 200 µM

## Cn1nc2c(cc1=O)CC(NC(=O)c1ccc(Cl)cc1)CC2 (centres unmarked) [Compound 33]
  DQ2 IL2 Maximal % Inhibition: B (B=41-70%)
  concentration at which the compound exhibited maximum % inhibition (DQ2 IL2): 200 µM

## Cn1nc2c(cc1=O)CC(NC(=O)c1ccc(Br)cc1)CC2 (centres unmarked) [Compound 34]
  DQ2 IL2 Maximal % Inhibition: A (A=71-100%)
  concentration at which the compound exhibited maximum % inhibition (DQ2 IL2): 200 µM

## Cn1nc2c(cc1=O)CC(NC(=O)c1ccc(I)cc1)CC2 (centres unmarked) [Compound 35]
  DQ2 IL2 Maximal % Inhibition: B (B=41-70%)
  concentration at which the compound exhibited maximum % inhibition (DQ2 IL2): 200 µM

## CCc1ccc(C(=O)NC2CCc3nn(CC)c(=O)cc3C2)cc1 (centres unmarked) [Compound 36]
  DQ2 IL2 Maximal % Inhibition: B (B=41-70%)
  concentration at which the compound exhibited maximum % inhibition (DQ2 IL2): 200 µM

## CCCn1nc2c(cc1=O)CC(NC(=O)c1ccc(CC)cc1)CC2 (centres unmarked) [Compound 37]
  DQ2 IL2 Maximal % Inhibition: B (B=41-70%)
  concentration at which the compound exhibited maximum % inhibition (DQ2 IL2): 200 µM

## CCc1ccc(C(=O)NC2CCc3nn(CC(N)=O)c(=O)cc3C2)cc1 (centres unmarked) [Compound 38]
  DQ2 IL2 Maximal % Inhibition: A (A=71-100%)
  concentration at which the compound exhibited maximum % inhibition (DQ2 IL2): 200 µM

## CCn1nc2c(cc1=O)CC(NC(=O)c1ccc(C(C)C)cc1)CC2 (centres unmarked) [Compound 40]
  DQ2 IL2 Maximal % Inhibition: B (B=41-70%)
  concentration at which the compound exhibited maximum % inhibition (DQ2 IL2): 200 µM

## CCCn1nc2c(cc1=O)CC(NC(=O)c1ccc(C(C)C)cc1)CC2 (centres unmarked) [Compound 41]
  DQ2 IL2 Maximal % Inhibition: A (A=71-100%)
  concentration at which the compound exhibited maximum % inhibition (DQ2 IL2): 200 µM

## CNC(=O)Cn1nc2c(cc1=O)CC(NC(=O)c1ccc(C(C)C)cc1)CC2 (centres unmarked) [Compound 42]
  DQ2 IL2 Maximal % Inhibition: A (A=71-100%)
  concentration at which the compound exhibited maximum % inhibition (DQ2 IL2): 200 µM

## CC(C)c1ccc(C(=O)NC2CCc3nn(CC(=O)O)c(=O)cc3C2)cc1 (centres unmarked) [Compound 43]
  DQ2 IL2 Maximal % Inhibition: A (A=71-100%)
  concentration at which the compound exhibited maximum % inhibition (DQ2 IL2): 200 µM

## CC(C)c1ccc(C(=O)NC2CCc3nn(C(C)C)c(=O)cc3C2)cc1 (centres unmarked) [Compound 44]
  DQ2 IL2 Maximal % Inhibition: A (A=71-100%)
  concentration at which the compound exhibited maximum % inhibition (DQ2 IL2): 200 µM

## CC(C)c1ccc(C(=O)NC2CCc3nn(CC4CC4)c(=O)cc3C2)cc1 (centres unmarked) [Compound 45]
  DQ2 IL2 Maximal % Inhibition: A (A=71-100%)
  concentration at which the compound exhibited maximum % inhibition (DQ2 IL2): 200 µM

## CCCCn1nc2c(cc1=O)CC(NC(=O)c1ccc(C(C)C)cc1)CC2 (centres unmarked) [Compound 46]
  DQ2 IL2 Maximal % Inhibition: B (B=41-70%)
  concentration at which the compound exhibited maximum % inhibition (DQ2 IL2): 200 µM
